Data as given in patent US20110086826A1, “LIPOSOMAL CAMPTOTHECINS AND USES THEREOF” (TEKMIRA PHARMACEUTICALS CORPORATION, priority 2000, published 2011).
Where two headings read alike, the source gives them in different places. Marks after values point to notes of the source that are not given here.

Experiments:
[1] = MTD studies (weight loss over time); conditions: if the drug was infused over 5-10 minutes
Method: MTD studies. MTD studies were performed in the host mouse strain corresponding to each tumor model. Single dose and multidose MID were determined by monitoring weight loss over time.

[2] = test system: MX-1 human breast xenografts; test: Subcutaneous MX-1 human breast xenografts
Excerpt: FIG. 5. […] Data is from NCTEF-004.
FIG. 7. […] Data is from NCTEF-006.
FIG. 8. […] Data is from NCTEF-009.

[3] = test system: LX-1 human SCLC xenografts; test: Subcutaneous LX-1 human SCLC xenografts; conditions: for % ILS (increase in lifespan) / DRD (drug related deaths) / LCK (log cell kill, gross) / MWL (maximum mean weight loss): LX-1 s.c.
Excerpt: Topotecan was encapsulated in SM:CH (55:45) vesicles at a drug-to-lipid ratio of 0.10 (w/w) using the Mg-A23187 method as described in Experimental. All dilutions were made in sterile 0.9% saline immediately prior to injection. Drug administration was made via the lateral tail vein at 10 days post-tumor cell implantation when the tumors were 100-300 mm^3. Data points represent mean±SEM (n=6).
Topotecan was encapsulated in SM:CH (55:45) vesicles at a drug-to-lipid ratio of 0.10 (w/w) using the Mg-A23187 method as described in Experimental. All dilutions were made in sterile 0.9% saline immediately prior to injection. Drug administration was made via the lateral tail vein on day 14, 21 and 28 post-tumor cell implantation. Data points represent mean±SEM (n=6).
Tumor Models. […] Human MX-1 and LX-1 cell lines were obtained from the DCTD Tumor Repository in Frederick, Md. These cell lines were received as tumor fragments and were propagated in NCr nude mice by serial transplantation of 3×3 mm fragments. Experiments were not initiated until the cell lines had been through 3 passages in nude mice and the tumor lines were restarted when the passage number reached 10.
Efficacy Studies. […] For the MX-1 and LX-1 tumor models, tumor volume was determined by repeated perpendicular measurements of tumor dimensions and using the formula:

Serum chemistry panel = type: in vivo, ICR mice; conditions: 10 mg/kg i.v., day 3 post-injection
Method: (§1) Myelosuppression and neutropenia studies. […] Empty vesicles were administered as a control. CBC and differential analysis was performed at Central Labs for Veterinarians (Langley, BC) to quantify cellular levels, ratios and morphology.

[4] = humans, daily for 5 consecutive days (d×5); cited from earlier work
[5] = test system: CT-26 murine colon metastases; test: Intrasplenic CT-26 murine colon metastases model; conditions: for % ILS (increase in lifespan) / DRD (drug related deaths) / MWL (maximum mean weight loss) / TF (tumor free animals at end of study): CT-26 i.s.
Method: FIG. 4. […] CT-26 cells (10^4 cells in 50 μl) were injected into the spleen of Balb/c mice on day 0. […] Each group consisted of 8 animals. Data is from NCTEF-002.
In the above formula, MTD is the maximum tolerated dose, defined as that dose that causes a mean weight loss of 20% in a group of animals; and MED is the minimal effective dose, defined as the dose that produces an optimal % T/C value of ≦40 in the solid tumor models or an % ILS of 50±10% in the survival models.

[6] = Pharmacokinetic and in vivo leakage studies; set-up: species or system ICR mice; conditions: plasma, i.v.
Method: 5. Pharmacokinetic and in vivo leakage studies. […] Two different drug-to-lipid ratios, i.e., 0.10 (w/w) and 0.02 (w/w), were used to examine the influence of drug-to-lipid ratio and lipid dose on drug leakage and PK behavior. Encapsulated topotecan was administered at 1 mg/kg (10 or 50 mg/kg lipid) and 5 mg/kg topotecan (50 mg/kg lipid). […] Total topotecan in blood was determined by a fluorescence assay preceded by precipitation of plasma proteins. Topotecan was quantified by spectrofluorimetry at an excitation (2.5 nm slit width) and emission wavelength (2.5 nm slit width) of 380 and 518 nm, respectively. Lipid levels in plasma were determined by liquid scintillation counting of the [^3H]-CHE label.
All parameters were derived from one or two-compartment models using WINNONLIN PK modeling software.

[7] = cited from earlier work
[8] = MTD of free topotecan in humans; conditions: 1.5 vs 14 mg/M^2
[9] = Myelosuppression and neutropenia studies (blood CBC and differential); type: in vivo, ICR mice; conditions: 10 mg/kg i.v.
Method: as §1

[10] = Topotecan lactone species in plasma; type: in vivo, mice; conditions: after only 5 minutes
[11] = MX-1 s.c., q3dx4, 1.25 mg/kg/dose i.v.
[12] = MX-1 s.c., q3dx4, 10 mg/kg/dose i.v.
[13] = MX-1 s.c., q7dx3, 5 mg/kg/dose i.v.
[14] = MX-1 s.c., q7dx3, 10 mg/kg/dose i.v.
[15] = MX-1 s.c., single dose 5, 10 and 40 mg/kg
[16] = MX-1 s.c., single i.v. dose 5 mg/kg
[17] = MX-1 s.c., single i.v. dose 10 mg/kg
[18] = MX-1 s.c., single i.v. dose 40 mg/kg
[19] = q7dx3, NCTEF-007, 10 mg/kg/dose i.v.
[20] = q7dx3, NCTEF-007, 30 mg/kg/dose i.v.
[21] = q7dx3, NCTEF-011, 10 mg/kg/dose i.v.
[22] = q7dx3, NCTEF-011, 30 mg/kg/dose i.v.
[23] = day 3 post-injection (first line of treatment)
[24] = day 21 post-injection (second line of treatment)

## CC[C@@]1(O)C(=O)OCc2c1cc1n(c2=O)Cc2cc3c(CN(C)C)c(O)ccc3nc2-1 [Free, 9-dimethylaminomethyl-10-hydroxy-camptothecin]
[1]
  true MTD (based on weight loss), estimated: ~60 mg/kg
[2]; MX-1, q7d×3, 5 or 10 mg/kg/dose
  anti-tumor activity (in words): little activity was observed
[2]; [11]
  % ILS (increase in lifespan): 20%
  DRD (drug related deaths): 0/6
  LCK (log cell kill, gross): 0.17
  MWL (maximum mean weight loss): +^h
  TF (tumor free animals at end of study): 0/6
[2]; [12]
  DRD (drug related deaths): 0/6
  LCK (log cell kill, gross): 0.21
  MWL (maximum mean weight loss): +
  TF (tumor free animals at end of study): 1/6
[2]; [13]
  DRD (drug related deaths): 0/6
  LCK (log cell kill, gross): 0.15
  MWL (maximum mean weight loss): +
  TF (tumor free animals at end of study): 0/6
[2]; [14]
  % T/C (optimal): 61%
  DRD (drug related deaths): 0/6
  MWL (maximum mean weight loss): −0.8%
  TF (tumor free animals at end of study): 0/6
[2]; [15]
  body weight: all animals gained weight
  drug-related deaths: No drug-related deaths were observed
[2]; [16]
  % ILS (increase in lifespan): 0%
  % T/C (optimal): 78%
  DRD (drug related deaths): 0/6
  LCK (log cell kill, gross): 0.02
  MWL (maximum mean weight loss): +
  T − C (tumor growth delay): 0.2 days
  TF (tumor free animals at end of study): 0/6
[2]; [17]
  % ILS (increase in lifespan): 13%
  DRD (drug related deaths): 0/6
  LCK (log cell kill, gross): 0.12
  MWL (maximum mean weight loss): +
  TF (tumor free animals at end of study): 0/6
[2]; [18]
  % ILS (increase in lifespan): 35%
  % T/C (optimal): 24%
  DRD (drug related deaths): 0/6
  LCK (log cell kill, gross): 0.35
  MWL (maximum mean weight loss): +
  TF (tumor free animals at end of study): 0/6
[3]; LX-1, initial single dose studies
  anti-tumor activity (in words): inactive at evaluated doses<30 mg/kg
[3]; [19]
  % ILS (increase in lifespan): 21%
  DRD (drug related deaths): 0/6
  LCK (log cell kill, gross): 0.14
  MWL (maximum mean weight loss): −6.2%
[3]; [20]
  DRD (drug related deaths): 0/6
  LCK (log cell kill, gross): 1.53
  MWL (maximum mean weight loss): −8.8%
[3]; [21]
  DRD (drug related deaths): 0/6
  MWL (maximum mean weight loss): −3.6%
[3]; [22]
  DRD (drug related deaths): 2/6
  MWL (maximum mean weight loss): −16.4%
[3]; single i.v. dose 5 mg/kg
  % ILS (increase in lifespan): 0%
  DRD (drug related deaths): 0/6
  LCK (log cell kill, gross): 0.13
  MWL (maximum mean weight loss): +
[3]; single i.v. dose 10 mg/kg
  % ILS (increase in lifespan): 0%
  DRD (drug related deaths): 0/6
  LCK (log cell kill, gross): 0.18
  MWL (maximum mean weight loss): +
[3]; single i.v. dose 30 mg/kg
  % ILS (increase in lifespan): 7%
  DRD (drug related deaths): 0/6
  LCK (log cell kill, gross): 0.27
  MWL (maximum mean weight loss): −1.3%
Serum chemistry panel
  ALT: 13 ± 23 IU/L
  Albumin: 32.8 ± 1.3 g/L
  BUN: 9.4 ± 3.2 mmol/L
  Bilirubin: 3.8 ± 0.8 µmol/L
  CPK: 56 ± 38 IU/L
  Creatinine: 82 ± 18 µmol/L
  Globulin: 15.2 ± 1.1 g/L
  TP: 48.0 ± 2.1 g/L
[4]
  MTD: 1.5 mg/M^2/dose
[5]; CT-26, single dose, over the dose range 5-40 mg/kg
  % ILS: 23-60%
[5]; single i.v. dose 5 mg/kg
  % ILS (increase in lifespan): 31%
  DRD (drug related deaths): 0/8
  MWL (maximum mean weight loss): +
  TF (tumor free animals at end of study): 0/8
[5]; single i.v. dose 10 mg/kg
  % ILS (increase in lifespan): 23%
  DRD (drug related deaths): 0/8
  MWL (maximum mean weight loss): +
  TF (tumor free animals at end of study): 0/8
[5]; single i.v. dose 40 mg/kg
  DRD (drug related deaths): 0/8
  MWL (maximum mean weight loss): −0.4%
  TF (tumor free animals at end of study): 1/8
[6]; 1 mg/kg
  α1/2: 0.14 h
  β1/2: 11.8 h
[6]; 5 mg/kg
  α1/2: 0.26 h
  β1/2: 11.4 h
[7]; mouse, in vivo
  LD10: 14 mg/M2/dose
[7]; qd×5 schedule, Grochow et al.
  LD10: ~4.7 mg/kg/dose
[8]
  human tolerated dose as share of the MTD in mice: 11%
[9]; day 3 post-injection
  Baso: 0.057 ± 0.040 ×10^9/L
  Eosino: 0.031 ± 0.021 ×10^9/L
  Lympho: 5.90 ± 1.70 ×10^9/L
  Mono: 0.177 ± 0.072 ×10^9/L
  Neutro: 0.520 ± 0.200 ×10^9/L
  WBC: 6.70 ± 1.95 ×10^9/L
[9]; [23]
  Hb: 136 ± 05 g/L
  Hc: 0.444 ± 0.012 L/L
  PLT: 879 ± 145 ×10^9/L
  RBC: 8.47 ± 0.39 ×10^12/L
[9]; day 21 post-injection
  Baso: 0.088 ± 0.071 ×10^9/L
  Eosino: 0.034 ± .016 ×10^9/L
  Lympho: 4.33 ± 0.93 ×10^9/L
  Mono: 0.247 ± 0.180 ×10^9/L
  Neutro: 0.480 ± 0.122 ×10^9/L
  WBC: 5.16 ± 1.18 ×10^9/L
[9]; [24]
  Hb: 154 ± 04 g/L
  Hc: 0.493 ± 0.014 L/L
  PLT: 907 ± 059 ×10^9/L
  RBC: 9.81 ± 0.37 ×10^12/L
[10]
  topotecan present in plasma as the lactone species: 48%
